Laboratory results published in patent publication US7632654B2, “Means and methods for detecting endoglycosidase activity” (Academisch Ziekenhuis bij de Universiteit van Amsterdam, priority 2002, dated 2009).
Values belong to the molecule of their own block, whether it stands above or below them.

Assays:
[1] = test system: bacterial chitinase, 39 and 50 kDa forms of human and mouse chitotriosidase and AMCases, fetal calf serum chitinase; experiment: CHIS versus 4-MU-chitobiose as substrate for other chitinases; format: biochemical; conditions: in all cases (not shown)
Description: For this purpose, assays were performed with CHIS and 4-MU-chitobiose as substrate with bacterial chitinase (Sigma), purified recombinant 39 and 50 kDa forms of human and mouse chitotriosidase and AMCases and purified fetal calf serum chitinase.

plasma chitotriosidase [2] = experiment: plasma chitotriosidase in sarcoidosis patients treated with corticosteroids; format: in vivo, human; conditions: sarcoidosis patient, orally 25 mg
Description: Sarcoidosis is treated by administration of corticosteroids. Determination of optimal drug dosage is critical but unfortunately also complicated. It was studied whether plasma chitotriosidase levels change upon treatment. […] However, tapering of the dose to 5 mg per day after 17 weeks was followed by recurrence of disease activity while chitotriosidase activity increment preceded the worsening of symptoms. Another interesting finding concerns a patient that was treated with corticosteroid pulse therapy (1000 mg methyiprednisone for three days every 2 weeks). […] This was accompanied by marked clinical improvement.

chitotriosidase = biological target: T1, chitotriosidase (Homo sapiens, UniProt Q13231); experiment: incubation of pure chitotriosidase with 4-MU-hexosamine and PNP-chitobiose (hydrolysis/transglycosylation); format: biochemical; conditions: substrate alone, 50 microM
T1 construct: made in house
Description: FIG. 2. […] Activity of 50 kDa recombinant human chitotriosidase towards PNPchitobiose, 4MU-hexosamine and a mixture of both substrates. Panel A: incubation 1. Enzyme was incubated with 50 microM PNPchitobiose and the reaction was stopped at indicated time points by adding excess of 0.2 M glycine-NaOH @H1O.3). Release of the hydrolysis product p-nitrophenol was determined spectrometrically at […]. Panel B: incubation 2. Enzyme was incubated with 50 microM 4MU-hexosamine and the reaction was stopped at indicated time points by adding excess of 0.2 M glycine-NaOH (pHlO.3). Release of the hydrolysis product 4-methyl-umbelliferone was determined fluorometrically (excitation at 366 nm; emission at 445 nm). Panel C: incubation 3. Enzyme was incubated with 50 microM PNPchitobiose and 50 microM 4MU-hexosamine and the reaction was stopped at indicated time points by adding excess of 0.2 M glycine-NaOH (pHlO.3). Release of hydrolysis products was measured spectrometrically and fluoremetrically.
FIG. 2A. Transglycosylation by chitotriosidase. Explanation for the outcome of the experiment depictured in FIG. 2. Chitotriosidase is able to remove chitobiose-unit from PNP-chitobiose, resulting in release of PNP that is spectrometrically detected. (FIG. 2 panel A). […]

plasma chitotriosidase [3] = experiment: plasma chitotriosidase in Gaucher patients following therapeutic interventions; format: in vivo, human; conditions: first patients in Europe treated, measured with 4MU-chitotriose, FIG. 7
Text: Besides its use in the confirmation of the diagnosis of Gaucher disease, the measurement of plasma chitotriosidase activity is extremely valuable in decision making regarding initiation of costly therapeutic intervention and optimizing treatment dosing regimens (Aerts et al, 1997; Young et al., 1997; Cox et al., 2000). […] It can be seen that onset of disease can be accurately monitored by monitoring plasma enzyme level. Initiation of therapy results in reductions of the plasma marker of the pathological Gaucher cells. […] In many countries regular measurement of plasma chitotriosidase is now used to monitor response to therapy and increases in plasma chitotriosidase levels are used as a criterion to initiate treatment. The plasma chitotriosidase now plays an important role in the clinical management of Gaucher patients. The European Working Group on Gaucher Disease has recommended its use.
FIG. 7. […] Responses in plasma enzyme level in the first patient in Europe treated with enzyme replacement therapy (aiglucerase) and the first patient in Europe treated with substrate deprivation therapy (butyldeoxynojirimycin). Enzyme activities were measured with 4MU-chitotriose as described in Hollak et al., 1994.

50 kDa chitotriosidase = biological target: T2, 50 kDa chitotriosidase (Homo sapiens, UniProt Q13231); experiment: hydrolysis of 4-MU substrates by pure 50 kDa chitotriosidase, fluorimetric 4-MU release; format: biochemical; conditions: 37 C
T2 construct: made in house
Description: FIG. 3. Substrate concentration dependency of chitriosidase activity with novel artificial substrate as compared to present one. Activity of 50 kDa chitotriosdase towards 4-MU-chitobiose and 4-deoxy-variant hereof (CHIS1). Enzyme was incubated at 37 C with indicated concentrations of substrates. Reactions were stopped after 10 minutes and 4-MU measured fluorometrically.
FIG. 4. Improved linearity of chitotriosidase assay with time and enzyme concentration. Activity of 50 kDa chitotriosdase towards 4-MU-chitobiose and 4-deoxy-variant hereof (CHIS). Reaction time (FIG. 5a) and concentration of enzyme (FIG. 5b) were varied and enzyme activity was measured with 4MU-chitobiose and 4-deoxy-variant hereof.
The CHISI compound was tested as substrate. For this purpose, pure 50 kDa chitotriosidase was incubated with this substrate at 37 C in Mclvaine buffer (pH 5.5). For comparison the enzymes were in parallel incubated with 4-MU-chitobiose (Sigma). The reaction was stopped by adding excess of 0.1 M glycine-NaOH @H 10.3) and fluorescence was monitored (excitation at 366 nm, emission at 445 nm).
Even more importantly, saturating substrate concentrations (100-200 microM) can be used in the case of CHIS (Km of chitotriosidase is 50 microM). This renders a great improvement with regard to reproducibility of the assay and interpretation of results. […]

[4] = biological target: T3, lysozyme from chicken egg (Gallus gallus, UniProt P00698); experiment: substrate preference of lysozyme, 4MU release; format: biochemical; conditions: lysozyme from chicken egg (Sigma)
T3 construct: lysozyme from chicken egg; purchased Sigma; host or cells: chicken egg
Text: (§1) Substrate preference of lysozyme. The enzymatic activity of commercial lysozyme preparations was 25 measured with 4-MU-chitobioside and 4MU-deoxychitbioside substrates. The release of 4MU was detected fluorimetrically, as described before. Similar to the findings for chitotriosidase (chitinase), the activity measured with the deoxy-subsytrate is far higher: […]

lysozyme from human milk = biological target: T4, lysozyme from human milk (Homo sapiens, UniProt P61626); experiment: substrate preference of lysozyme, 4MU release; format: biochemical; conditions: lysozyme from human milk (Sigma)
T4 construct: lysozyme from human milk; purchased Sigma; host or cells: human milk
T4 sequence (P61626 19-148): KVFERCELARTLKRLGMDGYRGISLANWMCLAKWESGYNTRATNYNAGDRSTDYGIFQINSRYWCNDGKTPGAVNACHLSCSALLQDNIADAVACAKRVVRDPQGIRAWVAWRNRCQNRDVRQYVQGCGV
Text: as §1

[5] = biological target: T5, lysozyme from human neutrophils (Homo sapiens, UniProt P61626); experiment: substrate preference of lysozyme, 4MU release; format: biochemical; conditions: lysozyme from human neutrophils (Sigma)
T5 construct: lysozyme from human neutrophils; purchased Sigma; host or cells: human neutrophils
T5 sequence (P61626 19-148): T4 sequence (P61626 19-148)
Text: as §1

serum chitotriosidase = serum chitotriosidase after G-CSF or GM-CSF in healthy volunteers; format: in vivo, human; conditions: parallel to lactoferrin
Description: Neutrophil Activation. To test the potential of chitotriosidase as a marker for the release of specific granules of neutrophils, we examined samples obtained in earlier studies in which granulocyte colony stimulating factor (G-CSF) or granulocyte-macrophage colony stimulating factor (GM-CSF) were administered to healthy volunteers. In these experiments it was previously shown that degranulation of the specific granules of neutrophils occurs. Neutrophils release their specific granule content after 2 hours after G-CSF injection, as detectable by the appearance of lactoferrin in the circulation. […] The increase in lactoferrin and chitotriosidase is not due to an increase in neutrophil cell number, because these levels peak later in time, after about 12 hours. A second peak in lactoferrin and chitotriosidase levels is seen after […] after G-CSF injection.

CSF chitotriosidase = CSF chitotriosidase in an MS patient under treatment; format: in vivo, human; conditions: one MS patient
Description: Multiple sclerosis (MS) is a presumed T-cell mediated Thi type autoimmune disease. In the pathophysiology of multiple sclerosis (MS) an important role is envisioned for activated T-lymphocytes and macrophages. It is generally thought that macrophages and resident brain microglia are agents of the demyelization that occurs in MS. Chitotriosidase activity was determined in plasma and cerebral spine fluid (CSF) of MS patients. In CSF of patients, but not in plasma, chitotriosidase activity is clearly elevated in relation to manifestation of MS. In a MS patient receiving recombinant beta-1B interferon treatment a concomitant 10-fold reduction in CSF chitotriosidase was noted by us. These findings indicate that chitotriosidase measurement is useful to assess the presence of activated phagocytes in the brain of MS patients and correction therein following treatment.

T1 sequence (Q13231 22-466): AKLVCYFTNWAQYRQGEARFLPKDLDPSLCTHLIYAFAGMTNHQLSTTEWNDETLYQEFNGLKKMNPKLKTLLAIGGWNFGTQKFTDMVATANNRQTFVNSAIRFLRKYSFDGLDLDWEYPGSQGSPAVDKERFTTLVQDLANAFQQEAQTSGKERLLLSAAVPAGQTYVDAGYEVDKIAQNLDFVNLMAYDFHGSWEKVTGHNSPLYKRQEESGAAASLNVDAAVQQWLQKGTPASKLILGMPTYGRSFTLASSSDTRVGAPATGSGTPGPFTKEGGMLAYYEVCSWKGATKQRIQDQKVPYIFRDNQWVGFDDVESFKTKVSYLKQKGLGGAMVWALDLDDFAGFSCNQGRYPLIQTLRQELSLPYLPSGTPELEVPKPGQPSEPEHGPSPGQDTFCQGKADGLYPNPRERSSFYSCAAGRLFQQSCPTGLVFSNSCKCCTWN
T2 sequence (Q13231 22-466): as above
T3 sequence (P00698 19-147): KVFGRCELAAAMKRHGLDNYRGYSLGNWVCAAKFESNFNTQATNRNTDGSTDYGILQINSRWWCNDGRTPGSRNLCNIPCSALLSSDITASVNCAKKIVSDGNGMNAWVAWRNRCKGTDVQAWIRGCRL

Molecule: CC(=O)N[C@H]1[C@H](Oc2ccc3c(C)cc(=O)oc3c2)O[C@H](CO)[C@@H](O[C@@H]2O[C@H](CO)[C@@H](O)[C@H](O)[C@H]2NC(C)=O)[C@@H]1O [4-MU-chitobiose, reference compound]
substrate behaviour with other chitinases [1]: showed apparent substrate inhibition at sub saturating concentrations

Molecule: C[C@]12C=CC(=O)C=C1CC[C@@H]1[C@@H]2C(=O)C[C@@]2(C)[C@H]1CC[C@]2(O)C(=O)CO [prednisone]
chitotriosidase activity upon treatment (plasma chitotriosidase [2]): markedly decreased

substrate of chitotriosidase (release of 4-MU or PNP) (chitotriosidase): is a substrate
Molecule: CC(=O)N[C@H]1[C@H](Oc2ccc([N+](=O)[O-])cc2)O[C@H](CO)[C@@H](O[C@@H]2O[C@H](CO)[C@@H](O)[C@H](O)[C@H]2NC(C)=O)[C@@H]1O [PNP-chitobiose]

Molecule: CCCCN1C[C@H](O)[C@@H](O)[C@H](O)[C@H]1CO [butyldeoxynojirimycin, reference compound]
response in plasma chitotriosidase (plasma chitotriosidase [3]): Corrections in plasma chitotriosidase

Km (50 kDa chitotriosidase; Mclvaine buffer pH 5.5): 50 µM | substrate inhibition (50 kDa chitotriosidase; pure 50 kDa chitotriosidase, pH 5.5, FIG. 3): does not show substrate inhibition | ratio 4MU-deoxychitobioside/4Mu-chitobioside [4]: 2.1-2.4 | ratio 4MU-deoxychitobioside/4Mu-chitobioside (lysozyme from human milk): 2.5-3.0 | ratio 4MU-deoxychitobioside/4Mu-chitobioside [5]: 3.0-3.2
Molecule: CC(=O)N[C@H]1[C@H](Oc2ccc3c(C)cc(=O)oc3c2)O[C@H](CO)[C@@H](O[C@@H]2O[C@H](CO)C[C@H](O)[C@H]2NC(C)=O)[C@@H]1O [CHIS1, 4-methylumbellyferyl 2-acetamido-2-deoxy-4-0-(2-acetamido-2,4-dideoxy-beta-D-glucopyranosyl)-beta-Dglucopyranoside]
substrate behaviour with other chitinases [1]: far more sensitive and linear at saturating substrate concentration

substrate of chitotriosidase (release of 4-MU or PNP) (chitotriosidase): no substrate
Molecule: CC(=O)N[C@H]1C(Oc2ccc3c(C)cc(=O)oc3c2)O[C@H](CO)[C@@H](O)[C@@H]1O (some centres unmarked) [4-MU-hexosamine, 4-methylumbelliferyl-N-acetyiglucosamine]

B1: aiglucerase: enzyme replacement therapy for Gaucher disease (protein, UniProt P04062 40-536, looked up)
Lysosomal acid …: ARPCIPKSFGYSSVVCVCNATYCDSFDPPTFPALGTFSRYESTRSGRRMELSMGPIQANHTGTGLLLTLQPEQKFQKVKGFGGAMTDAAALNILALSPPAQNLLLKSYFSEEGIGYNIIRVPMASCDFSIRTYTYADTPDDFQLHNFSLPEEDTKLKIPLIHRALQLAQRPVSLLASPWTSPTWLKTNGAVNGKGSLKGQPGDIYHQTWARYFVKFLDAYAEHKLQFWAVTAENEPSAGLLSGYPFQCLGFTPEHQRDFIARDLGPTLANSTHHNVRLLMLDDQRLLLPHWAKVVLTDPEAAKYVHGIAVHWYLDFLAPAKATLGETHRLFPNTMLFASEACVGSKFWEQSVRLGSWDRGMQYSHSIITNLLYHVVGWTDWNLALNPEGGPNWVRNFVDSPIIVDITKDTFYKQPMFYHLGHFSKFIPEGSQRVGLVASQKNDLDAVALMHPDGSAVVVVLNRSSKDVPLTIKDPAVGFLETISPGYSIHTYLWRRQ
modifications: mannose-terminated glycans
notes: enzyme replacement therapy for Gaucher disease
response in plasma chitotriosidase (plasma chitotriosidase [3]): Corrections in plasma chitotriosidase

B2: G-CSF: granulocyte colony stimulating factor (protein, UniProt P09919 31-207, looked up)
Granulocyte …: TPLGPASSLPQSFLLKCLEQVRKIQGDGAALQEKLVSECATYKLCHPEELVLLGHSLGIPWAPLSSCPSQALQLAGCLSQLHSGLFLYQGLLQALEGISPELGPTLDTLQLDVADFATTIWQQMEELGMAPALQPTQGAMPAFASAFQRRAGGVLVASHLQSFLEVSYRVLRHLAQP
serum chitotriosidase levels (serum chitotriosidase): Parallel increases

B3: recombinant beta-1B interferon: recombinant beta-1B interferon treatment of an MS patient (protein, UniProt P01574 22-187, looked up, variant C17S)
Interferon beta: MSYNLLGFLQRSSNFQSQKLLWQLNGRLEYCLKDRMNFDIPEEIKQLQQFQKEDAALTIYEMLQNIFAIFRQDSSSTGWNETIVENLLANVYHQINHLKTVLEEKLEKEDFTRGKLMSSLHLKRYYGRILHYLKAKEYSHCAWTIVRVEILRNFYFINRLTGYLRN
modifications: lacks N-terminal Met, non-glycosylated
notes: recombinant beta-1B interferon treatment of an MS patient
reduction in CSF chitotriosidase (CSF chitotriosidase): 10 fold
